From publication PMC8322070, “A novel orally active HDAC6 inhibitor T-518 shows a therapeutic potential for Alzheimer’s disease and tauopathy in mice” (Scientific Reports, 2021) come the findings set out here.

One assay has as its target T1, human HDAC6 (Homo sapiens, UniProt Q9UBN7).
T1 construct: purchased SignalChem Pharmaceutical Inc
T1 sequence (Q9UBN7 1-1215): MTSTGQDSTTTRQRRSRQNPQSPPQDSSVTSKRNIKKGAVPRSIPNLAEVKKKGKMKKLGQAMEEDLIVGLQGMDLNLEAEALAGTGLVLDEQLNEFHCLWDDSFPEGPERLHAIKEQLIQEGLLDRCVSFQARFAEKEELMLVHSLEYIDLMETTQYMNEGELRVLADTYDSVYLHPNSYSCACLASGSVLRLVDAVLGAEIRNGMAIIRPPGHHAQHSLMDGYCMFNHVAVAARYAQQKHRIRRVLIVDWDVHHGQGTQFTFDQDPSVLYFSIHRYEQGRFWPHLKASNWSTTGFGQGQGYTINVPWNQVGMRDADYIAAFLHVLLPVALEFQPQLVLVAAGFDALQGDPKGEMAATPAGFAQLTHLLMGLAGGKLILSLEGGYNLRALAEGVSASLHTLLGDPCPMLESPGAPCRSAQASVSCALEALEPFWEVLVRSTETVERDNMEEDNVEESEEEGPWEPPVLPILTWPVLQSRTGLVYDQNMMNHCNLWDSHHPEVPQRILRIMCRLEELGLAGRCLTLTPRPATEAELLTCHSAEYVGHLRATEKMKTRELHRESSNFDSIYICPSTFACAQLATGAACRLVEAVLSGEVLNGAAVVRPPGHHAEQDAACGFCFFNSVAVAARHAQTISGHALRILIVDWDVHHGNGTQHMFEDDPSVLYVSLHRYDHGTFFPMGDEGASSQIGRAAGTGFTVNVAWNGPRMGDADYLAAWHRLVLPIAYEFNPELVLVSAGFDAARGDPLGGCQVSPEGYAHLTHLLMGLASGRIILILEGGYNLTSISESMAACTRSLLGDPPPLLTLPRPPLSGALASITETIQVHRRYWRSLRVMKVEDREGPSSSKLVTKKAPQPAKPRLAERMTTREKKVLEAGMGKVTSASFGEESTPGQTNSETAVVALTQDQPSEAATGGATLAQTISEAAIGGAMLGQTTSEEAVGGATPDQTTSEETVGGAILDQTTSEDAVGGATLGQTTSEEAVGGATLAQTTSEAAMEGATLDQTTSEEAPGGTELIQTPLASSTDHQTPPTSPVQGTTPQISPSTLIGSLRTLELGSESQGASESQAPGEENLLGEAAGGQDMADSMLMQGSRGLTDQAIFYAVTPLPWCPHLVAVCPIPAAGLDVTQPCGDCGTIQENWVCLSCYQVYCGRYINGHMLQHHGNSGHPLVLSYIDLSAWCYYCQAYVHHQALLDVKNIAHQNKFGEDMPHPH
As to the kind of experiment: HDAC enzyme assay (HDAC-Glo I/II), HDAC6. In kind it is biochemical. The method, then:
Recombinant HDAC6, HDAC7, HDAC1 were obtained from SignalChem Pharmaceutical Inc. (Richmond, BC, Canada), and recombinant human HDAC4 was prepared at Takeda pharmaceutical company. One μL of T-518 diluted with DMSO was added to 75 μL of assay buffer (24 mM Tris–HCl (pH 7.5), 135 mM NaCl, 0.35 mM KCl, 1 mM MgCl2, 0.01% Tween 20, 0.6 mM GSH) in 384 well plates. Two μL of diluted compounds were added to 384 well plates and 2 μL of recombinant HDAC enzymes was added and then centrifuged at 1000 rpm for 10 s. The final concentrations of each HDAC enzyme were as follows, human HDAC1, 170 pM; human HDAC6, […]; human HDAC4, 68 pM; human HDAC7, 13 pM. After incubation for 60 min at room temperature, 4 μL of HDAC-Glo reagent [HDAC-Glo I/II (Promega) for HDAC6 and HDAC1, HDAC-Glo class IIa (Promega) for HDAC4 and HDAC7] was added to start the reaction. After incubation for 20 min at room temperature, the luminescence was measured by Envision plate reader (PerkinElmer, Waltham, MA, USA). For experiments under the condition of 0 min preincubation, 4 μL of HDAC-Glo reagent was added at first to the 384 well plates including diluted compounds. […] After centrifugation at 1000 rpm for 10 s. and then incubation for 20 min at room temperature, the luminescence was measured by Envision. […] The inhibitory activity of T-518 was expressed as the value of IC50. […]

The next assay concerns P301S tau Tg mice. As to the kind of experiment: Septohippocampal retrograde axonal transport of Fluoro-Gold in tauopathy model. In kind it is in vivo, mouse. The settings on record: 3 mg/kg daily for 2 weeks, 5-month-old P301S tau Tg mice. The method, then:
T-518, ACY-738, Ricolinostat, and Tubastatin A were synthesized in Takeda. For in vitro cellular experiments, the compounds were solubilized with DMSO and diluted in the culture medium at the indicated concentrations. For in vivo experiments, the compound was reconstituted in 0.5% methylcellulose and administered orally at the indicated doses. After administration, mouse hippocampus was isolated and homogenized in RIPA extraction buffer (50 mM Tris–HCl, 150 mM NaCl, 1% NP-40, 0.5% sodium deoxycholate, and 0.1% SDS, pH 8.0) supplemented with protease and phosphatase inhibitor cocktail (Thermo Fischer, Waltham, MA, USA). The homogenate was centrifuged at 10,000g for 15 min and the supernatant was taken as the RIPA-soluble fraction.
The integrity of retrograde axonal transport was evaluated by detecting the accumulation of Fluoro-Gold (Fluorochrome, Denver, CO) in the medial septal nucleus after injection into hippocampus (0.5 μL of 5% at AP − 2.3 mm, ML − 2.0 mm, and DV − 2.0 mm relative to bregma). Three days after injection, mice were anesthetized and transcardially perfused with PBS (pH 7.4) followed by 4% paraformaldehyde. […] Fluorescent cells in the medial septum region were counted with Image-Pro Plus software (version 4.5.0.24) (Media Cybernetics, Rockville, MD; https://www.mediacy.com/imageproplus).

As a reminder, the IC50 is the midpoint of a concentration-inhibition curve.

For the compound `O=C1c2cc(-c3nnc(C(F)F)o3)cnc2CN1[C@@H]1CCCC[C@H]1NC(=O)C(F)(F)C(F)(F)F` [T-518, N-[(1R,2R)-2-{3-[5-(difluoromethyl)-1,3,4-oxadiazol-2-yl]-5-oxo-5H,6H,7H-pyrrolo[3,4-b]pyridin-6-yl}cyclohexyl]-2,2,3,3,3-pentafluoropropanamide], the IC50 on human HDAC6 (after 60 min of pre-incubation) was 0.0046 µM; on human HDAC6 (without pre-incubation), 0.036 µM. Further, the “retrograde axonal transport of Fluoro-Gold from hippocampus to medial septal nucleus” value in the assay on P301S tau Tg mice is given as “significantly improved axonal transport”.
